#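 Results reflect a 48-hour exposure of cells in 96-well plates to compound at five concentrations. At the GI50, growth is halved.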 The source made the active and inactive calls. Rule as the data show it: active = GI50 up to about 1.1 µM and inactive = higher.
# What was measured:
# Test in all cases: DTP human tumour cell line panel, 48 h
# NCI-H522 = system: NCI-H522
# OVCAR-8 = system: OVCAR-8
# UACC-62 = system: UACC-62
# A498 = system: A498
# OVCAR-5 = system: OVCAR-5
# LOX IMVI = system: LOX IMVI
# SK-MEL-28 = system: SK-MEL-28
# DLD-1 = system: DLD-1
# U-251 = system: U-251
# UO-31 = system: UO-31
# DMS-273 = system: DMS-273
# SN12C = system: SN12C
# SF-295 = system: SF-295
# TK-10 = system: TK-10
# NCI-H460 = system: NCI-H460
# 786-0 = system: 786-0
# IGROV-1 = system: IGROV-1
# SK-OV-3 = system: SK-OV-3
# HCT-15 = system: HCT-15
# SW-620 = system: SW-620
# OVCAR-3 = system: OVCAR-3
# COLO 205 = system: COLO 205
# HOP-62 = system: HOP-62
# M19-MEL = system: M19-MEL
# SNB-78 = system: SNB-78
# HOP-92 = system: HOP-92
# SR = system: SR
# HT-29 = system: HT-29
# ACHN = system: ACHN
# RPMI-8226 = system: RPMI-8226
# A549 = system: A549
# CAKI-1 = system: CAKI-1
# SNB-75 = system: SNB-75
# SK-MEL-5 = system: SK-MEL-5
# K562 = system: K562
# KM12 = system: KM12
# KM-20L2 = system: KM-20L2
# UACC-257 = system: UACC-257
# DMS-114 = system: DMS-114
# NCI-H23 = system: NCI-H23
# HL-60 = system: HL-60
# LXFL 529 = system: LXFL 529
# Malme-3M = system: Malme-3M
# EKVX = system: EKVX
# HCC 2998 = system: HCC 2998
# M14 = system: M14
# HOP-18 = system: HOP-18
# SNB-19 = system: SNB-19
# SF-539 = system: SF-539
# HCT-116 = system: HCT-116
# CCRF-CEM = system: CCRF-CEM
# SK-MEL-2 = system: SK-MEL-2
# SF-268 = system: SF-268
# RXF 393 = system: RXF 393
# XF498 = system: XF498
# NCI-H226 = system: NCI-H226
# OVCAR-4 = system: OVCAR-4
# MOLT-4 = system: MOLT-4
# MCF7 = system: MCF7
# NCI/ADR-RES = system: NCI/ADR-RES
smiles,measurement,setting,value
CC1(C)C2CCC3(C2)CS(=O)(=O)N2OC231 (stereo not drawn),GI50,NCI-H522,13.8 µM (inactive)
same,GI50,OVCAR-8,24.8 µM (inactive)
same,GI50,UACC-62,17.5 µM (inactive)
same,GI50,A498,25.2 µM (inactive)
same,GI50,OVCAR-5,23.7 µM (inactive)
same,GI50,LOX IMVI,16.3 µM (inactive)
same,GI50,SK-MEL-28,25.4 µM (inactive)
same,GI50,DLD-1,23.7 µM (inactive)
same,GI50,U-251,34.4 µM (inactive)
same,GI50,UO-31,16.1 µM (inactive)
same,GI50,DMS-273,29.4 µM (inactive)
same,GI50,SN12C,16.9 µM (inactive)
same,GI50,SF-295,> 100 µM (inactive)
same,GI50,TK-10,18 µM (inactive)
same,GI50,NCI-H460,19.5 µM (inactive)
same,GI50,786-0,16.9 µM (inactive)
same,GI50,IGROV-1,19.5 µM (inactive)
same,GI50,SK-OV-3,49.7 µM (inactive)
same,GI50,HCT-15,16.1 µM
same,GI50,SW-620,16.5 µM (inactive)
same,GI50,OVCAR-3,19.1 µM (inactive)
same,GI50,COLO 205,17.9 µM (inactive)
same,GI50,HOP-62,79.8 µM (inactive)
same,GI50,M19-MEL,15.7 µM (inactive)
same,GI50,SNB-78,25.5 µM (inactive)
same,GI50,HOP-92,10.8 µM (inactive)
same,GI50,SR,> 100 µM (inactive)
same,GI50,HT-29,15.2 µM (inactive)
same,GI50,ACHN,15.9 µM (inactive)
same,GI50,RPMI-8226,29.5 µM (inactive)
same,GI50,A549,> 100 µM (inactive)
same,GI50,CAKI-1,16 µM (inactive)
same,GI50,SNB-75,17 µM (inactive)
same,GI50,SK-MEL-5,21 µM (inactive)
same,GI50,K562,17.4 µM (inactive)
same,GI50,KM12,19.6 µM (inactive)
same,GI50,KM-20L2,16.3 µM (inactive)
same,GI50,UACC-257,17.1 µM (inactive)
same,GI50,DMS-114,12.2 µM (inactive)
same,GI50,NCI-H23,16.6 µM (inactive)
same,GI50,HL-60,15.4 µM (inactive)
same,GI50,LXFL 529,16.7 µM (inactive)
same,GI50,Malme-3M,15.5 µM (inactive)
same,GI50,EKVX,15.7 µM (inactive)
same,GI50,HCC 2998,38.1 µM (inactive)
same,GI50,M14,16.2 µM (inactive)
same,GI50,HOP-18,17.6 µM (inactive)
same,GI50,SNB-19,34.4 µM (inactive)
same,GI50,SF-539,18.5 µM (inactive)
same,GI50,HCT-116,31.3 µM (inactive)
same,GI50,CCRF-CEM,24.5 µM (inactive)
same,GI50,SK-MEL-2,21.1 µM (inactive)
same,GI50,SF-268,26.4 µM (inactive)
O=C(CC1(O)C(=O)Nc2ccccc21)c1ccccc1Cl (stereo not drawn),GI50,NCI-H522,76.6 µM (inactive)
same,GI50,OVCAR-8,> 100 µM (inactive)
same,GI50,UACC-62,> 100 µM (inactive)
same,GI50,A498,> 100 µM (inactive)
same,GI50,OVCAR-5,> 100 µM (inactive)
same,GI50,LOX IMVI,> 100 µM (inactive)
same,GI50,SK-MEL-28,> 100 µM (inactive)
same,GI50,DLD-1,> 100 µM (inactive)
same,GI50,UO-31,64.9 µM (inactive)
same,GI50,DMS-273,> 100 µM (inactive)
same,GI50,RXF 393,> 100 µM (inactive)
same,GI50,SN12C,> 100 µM (inactive)
same,GI50,SF-295,> 100 µM (inactive)
same,GI50,TK-10,> 100 µM (inactive)
same,GI50,NCI-H460,> 100 µM (inactive)
same,GI50,786-0,> 100 µM (inactive)
same,GI50,IGROV-1,> 100 µM (inactive)
same,GI50,SK-OV-3,> 100 µM (inactive)
same,GI50,HCT-15,> 100 µM
same,GI50,SW-620,> 100 µM (inactive)
same,GI50,OVCAR-3,> 100 µM (inactive)
same,GI50,COLO 205,> 100 µM (inactive)
same,GI50,M19-MEL,> 100 µM (inactive)
same,GI50,SNB-78,> 100 µM (inactive)
same,GI50,HOP-92,> 100 µM (inactive)
same,GI50,HT-29,> 100 µM (inactive)
same,GI50,ACHN,> 100 µM (inactive)
same,GI50,RPMI-8226,> 100 µM (inactive)
same,GI50,A549,> 100 µM (inactive)
same,GI50,CAKI-1,> 100 µM (inactive)
same,GI50,SNB-75,> 100 µM (inactive)
same,GI50,SK-MEL-5,> 100 µM (inactive)
same,GI50,K562,> 100 µM (inactive)
same,GI50,KM-20L2,> 100 µM (inactive)
same,GI50,UACC-257,> 100 µM (inactive)
same,GI50,XF498,> 100 µM (inactive)
same,GI50,DMS-114,> 100 µM (inactive)
same,GI50,NCI-H23,> 100 µM (inactive)
same,GI50,HL-60,> 100 µM (inactive)
same,GI50,LXFL 529,> 100 µM (inactive)
same,GI50,Malme-3M,> 100 µM (inactive)
same,GI50,EKVX,> 100 µM (inactive)
same,GI50,M14,> 100 µM (inactive)
same,GI50,NCI-H226,> 100 µM (inactive)
same,GI50,SNB-19,> 100 µM (inactive)
same,GI50,SF-539,> 100 µM (inactive)
same,GI50,HCT-116,> 100 µM (inactive)
same,GI50,SK-MEL-2,> 100 µM (inactive)
same,GI50,OVCAR-4,> 100 µM (inactive)
same,GI50,MOLT-4,> 100 µM (inactive)
same,GI50,SF-268,> 100 µM (inactive)
COc1cc2c(cc1O)N=C[C@@H]1CC[C@@H](O)N1C2=O.COc1cc2c(cc1O)N=C[C@@H]1CC[C@H](O)N1C2=O,GI50,NCI-H522,0.159 µM (active)
same,GI50,OVCAR-8,1.05 µM (active)
same,GI50,UACC-62,0.627 µM (active)
same,GI50,A498,0.43 µM (active)
same,GI50,OVCAR-5,2.99 µM (inactive)
same,GI50,LOX IMVI,0.473 µM (active)
same,GI50,SK-MEL-28,0.977 µM (active)
same,GI50,DLD-1,1 µM (active)
same,GI50,U-251,0.635 µM (active)
same,GI50,UO-31,0.579 µM (active)
same,GI50,DMS-273,5.48 µM (inactive)
same,GI50,RXF 393,0.281 µM (active)
same,GI50,SN12C,1.04 µM (active)
same,GI50,SF-295,0.984 µM (active)
same,GI50,NCI-H460,2.54 µM (inactive)
same,GI50,IGROV-1,1.83 µM (inactive)
same,GI50,SK-OV-3,4.41 µM (inactive)
same,GI50,MCF7,0.946 µM (active)
same,GI50,HCT-15,0.74 µM
same,GI50,SW-620,0.652 µM (active)
same,GI50,OVCAR-3,0.561 µM (active)
same,GI50,COLO 205,0.738 µM (active)
same,GI50,HOP-62,0.631 µM (active)
same,GI50,M19-MEL,1.2 µM (inactive)
same,GI50,SNB-78,0.631 µM (active)
same,GI50,HOP-92,0.752 µM (active)
same,GI50,HT-29,2.17 µM (inactive)
same,GI50,RPMI-8226,0.527 µM (active)
same,GI50,A549,5.6 µM (inactive)
same,GI50,CAKI-1,0.607 µM (active)
same,GI50,SNB-75,1.02 µM (active)
same,GI50,SK-MEL-5,0.583 µM (active)
same,GI50,K562,0.849 µM (active)
same,GI50,KM12,1.38 µM (inactive)
same,GI50,NCI/ADR-RES,0.855 µM (active)
same,GI50,KM-20L2,1.72 µM (inactive)
same,GI50,UACC-257,1.6 µM (inactive)
same,GI50,XF498,0.48 µM (active)
same,GI50,DMS-114,0.522 µM (active)
same,GI50,NCI-H23,0.916 µM (active)
same,GI50,HL-60,0.897 µM (active)
same,GI50,Malme-3M,0.597 µM (active)
same,GI50,EKVX,1.87 µM (inactive)
same,GI50,HCC 2998,0.863 µM (active)
same,GI50,HOP-18,0.863 µM (active)
same,GI50,NCI-H226,0.525 µM (active)
same,GI50,SNB-19,1.4 µM (inactive)
same,GI50,SF-539,0.726 µM (active)
same,GI50,HCT-116,1.32 µM (inactive)
same,GI50,CCRF-CEM,0.369 µM (active)
same,GI50,SK-MEL-2,0.433 µM (active)
same,GI50,OVCAR-4,3.55 µM (inactive)
same,GI50,MOLT-4,0.615 µM (active)
same,GI50,SF-268,0.735 µM (active)
